Experimental data: patent publication US6638951B1, “Benzamide derivatives and drugs containing the same” (Hokuriku Seiyaku Co., Ltd., priority 1999, dated 2003)
Where a name gives a salt, the structure may show the parent alone.

Tests used:
male ferrets = test: Emetic action in ferrets; format: in vivo; details: 16 hours fasting, 10 mg/kg p.o., during 2 hours after administration, 8 tested ferrets per compound
Protocol: The tested compound of Example 5 was used as a methanesulfonic acid salt, and the following compounds disclosed in Japanese Patent Unexamined Publication No. 5-262724/1993 were used as reference compounds:
Each test compound dissolved in 10% aqueous dimethyl sulfoxide solution was administered to male ferrets, weighing 0.9 to 1.3 kg, and 16 hours fasting, and then the incidence of vomiting was observed during 2 hours after the administration.

Structure (SMILES)	melting point [°C]	Number of ferrets showing vomiting (male ferrets)
COc1cc(N)c(Cl)cc1C(=O)NC1CCN(CC(=O)OC(C)C)CC1 (as salt: hydrochloride) [Example 3, Isopropyl 4-(4-amino-5-chloro-2-methoxybenzamido)-1-piperidineacetate]	125 to 130	–
CCCCCCOC(=O)CN1CCC(NC(=O)c2cc(Cl)c(N)cc2OC)CC1 (as salt: hydrochloride) [Example 7, n-Hexyl 4-(4-amino-5-chloro-2-methoxybenzamido)-1-piperidineacetate]	133 to 137	–
CCCCOC(=O)CN1CCC(NC(=O)c2cc(Cl)c(N)cc2OC)CC1 (as salt: hydrochloride) [Example 8, n-Butyl 4-(4-amino-5-chloro-2-methoxybenzamido)-1-piperidineacetate]	141 to 144	–
CCCCOC(=O)CN1CCC(NC(=O)c2cc(Cl)c(N)cc2OC)CC1 (as salt: methanesulfonate) [Example 1, n-Butyl 4-(4-amino-5-chloro-2-methoxybenzamido)-1-piperidineacetate]	209 to 211.5	–
CCCOC(=O)CN1CCC(NC(=O)c2cc(Cl)c(N)cc2OC)CC1 (as salt: methanesulfonate) [Example 2, n-Propyl 4-(4-amino-5-chloro-2-methoxybenzamido)-1-piperidineacetate]	209 to 210	–
COc1cc(N)c(Cl)cc1C(=O)NC1CCN(CC(=O)OCC(C)C)CC1 (as salt: methanesulfonate) [Example 4, Isobutyl 4-(4-amino-5-chloro-2-methoxybenzamido)-1-piperidineacetate]	207 to 208	–
CCCCCOC(=O)CN1CCC(NC(=O)c2cc(Cl)c(N)cc2OC)CC1 (as salt: methanesulfonate) [Example 5, n-Pentyl 4-(4-amino-5-chloro-2-methoxybenzamido)-1-piperidineacetate]	202.5 to 203	–
COc1cc(N)c(Cl)cc1C(=O)NC1CCN(CC(=O)OCCC(C)C)CC1 (as salt: methanesulfonate) [Example 6, Isopentyl 4-(4-amino-5-chloro-2-methoxybenzamido)-1-piperidineacetate]	199.5 to 201	–
CCCCOC(=O)CN1CCC(NC(=O)c2cc(Cl)c(N)cc2OC)CC1 (as salt: methanesulfonate) [Example 9, n-Butyl 4-(4-amino-5-chloro-2-methoxybenzamido)-1-piperidineacetate]	111 to 112	–
CCCCOC(=O)CN1CCC(NC(=O)c2cc(Cl)c(N)cc2OC)CC1 [Example 1, n-Butyl 4-(4-amino-5-chloro-2-methoxybenzamido)-1-piperidineacetate]	–	0
CCCOC(=O)CN1CCC(NC(=O)c2cc(Cl)c(N)cc2OC)CC1 [Example 2, n-Propyl 4-(4-amino-5-chloro-2-methoxybenzamido)-1-piperidineacetate]	–	2
COc1cc(N)c(Cl)cc1C(=O)NC1CCN(CC(=O)OCC(C)C)CC1 [Example 4, Isobutyl 4-(4-amino-5-chloro-2-methoxybenzamido)-1-piperidineacetate]	–	1
CCCCCOC(=O)CN1CCC(NC(=O)c2cc(Cl)c(N)cc2OC)CC1 [Example 5, n-Pentyl 4-(4-amino-5-chloro-2-methoxybenzamido)-1-piperidineacetate]	–	0
CCCCCCOC(=O)CN1CCC(NC(=O)c2cc(Cl)c(N)cc2OC)CC1 [Example 7, n-Hexyl 4-(4-amino-5-chloro-2-methoxybenzamido)-1-piperidineacetate]	–	1
COc1cc(N)c(Cl)cc1C(=O)NC1CCN(CC(=O)O)CC1.Cl [Reference compound 1, 4-(4-amino-5-chloro-2-methoxybenzamido)-1-piperidineacetic acid hydrochloride, reference compound]	–	0
CCOC(=O)CN1CCC(NC(=O)c2cc(Cl)c(N)cc2OC)CC1.Cl [Reference compound 2, Ethyl 4-(4-amino-5-chloro-2-methoxybenzamido)-1-piperidine-acetate hydrochloride, reference compound]	–	8
